Test results from US20140356361A1, “REPEATED ADMINISTRATION OF NON-IMMUNOSUPPRESSIVE ANTIGEN SPECIFIC IMMUNOTHERAPEUTICS” (Selecta Biosciences, Inc., priority 2013, published 2014).

Key:
Format in all cases: in vivo, C57BL/6 mice
[1] = tested on: keyhole limpet hemocyanin (KLH); assay: Anti-KLH IgG titers, MTX given with KLH i.v. (Example 18); settings: MTX i.p. days 1-3, 7-9, 14-16; 200 μg KLH i.v. weekly, 5 injections; FIG. 3
Method: (§1) In order to test whether multiple injections of MTX can lead to the establishment of immunological tolerance, C57BL/6 age-matched (5-6 weeks) female mice were injected intravenously in the tail vein with weekly injections of 200 μg of keyhole limpet hemocyanin (KLH) and subcutaneously in the hind limbs with 25 μg of a particulate form of chicken Ovalbumin (pOVA) admixed to 2 μg of CpG oligodeoxynucleotides (ODN). With the first three antigen injections, a group of animals received 3 intraperitoneal injections of MTX on the same day and the following 2 days. All animals received 5 injections of antigen (d0, 7, 14, 21 and 28) and one group received 9 additional injections of MTX i.p. (days 1-3, 7-9, 14-16).
(§2) The anti-KLH and anti-OVA responses were monitored in the blood in these animals at different time points.

[2] = tested on: keyhole limpet hemocyanine (KLH); assay: Anti-KLH antibody response, KLH+CpG given after MTX treatment (Example 17); settings: 20 μg KLH + 2 μg CpG s.c. injected after the MTX treatments (from d21); FIG. 2
Method: (§3) C57BL/6 age-matched (5-6 weeks) female mice were injected 5 times intravenously in the tail vein with weekly injections of 25 μg of an immunogenic, particulate form of chicken Ovalbumin (pOVA). One group of animals received 3 intraperitoneal injections of 200 μg of MTX along with the 3 first antigen injections the same day and the 2 following days. The untreated group received only antigen whereas the treated group received 9 injections total of MTX i.p. (days 1-3, 7-9, 14-16). On the 4th and 5th injection days all animals received 20 μg of keyhole limpet hemocyanine (KLH) subcutaneously in the hind limbs admixed to 2 μg of CpG in addition to the i.v. injection of pOVA.
(§4) The anti-KLH and anti-OVA antibody responses were monitored in the blood in these animals at different time points.

[3] = tested on: chicken Ovalbumin (pOVA); assay: Anti-OVA IgG titers, MTX given with pOVA+CpG s.c. (Example 18); settings: MTX i.p. days 1-3, 7-9, 14-16; 25 μg pOVA + 2 μg CpG s.c. weekly, 5 injections; FIG. 3
Method: as §1, §2

[4] = tested on: chicken Ovalbumin (pOVA); assay: Anti-OVA antibody response, MTX given with pOVA (Example 17); settings: 200 μg MTX i.p. days 1-3, 7-9, 14-16; 5 weekly i.v. injections of 25 μg pOVA; FIG. 2
Method: as §3, §4

For CN(Cc1cnc2nc(N)nc(N)c2n1)c1ccc(C(=O)N[C@@H](CCC(=O)O)C(=O)O)cc1 [MTX, Methotrexate], the “anti-KLH IgG antibody titers” value [1] was “blocked both responses and the animals showed low titers”, the anti-KLH response [2] was “robust anti-KLH response could be detected in all groups” and the “anti-OVA IgG antibody titers” value [3] was “blocked both responses and the animals showed low titers”. For the same compound, the anti-OVA antibody response [4] was “blocked the antibody response and only minimal titers were detected”.
